The values that follow come from PMC12040169 (PLOS Biology, 2025).

A short description of one data set: in vitro. The conditions noted are these: human, hela cells, % viability.
As for `Cc1cc2ccccc2n2c(SCC(=O)NCc3ccco3)nnc12` [CBK265666], the viability at 28.5 h, 10 µM was determined as 107%.

For the molecule `C#CCOc1ccc(/C=C2/SC(=S)N(CCC(=O)O)C2=O)cc1` [CBK265667], the viability at 28.5 h, 10 µM amounted to 94.1%.

As for `CC1CCCCN1CCNC(=O)c1ccc(Cn2c(=S)[nH]c3ccccc3c2=O)cc1` (stereo not drawn) [CBK265674], the viability at 28.5 h, 10 µM came to 96%.

With `COC(=O)c1c(NC(=O)C(C)Oc2cc(C)c(Cl)c(C)c2)sc(C(C)=O)c1C` (stereo not drawn) [CBK265678], the viability at 28.5 h, 10 µM worked out at 94.1%.

As for `Cc1ccccc1/N=C1/NC(=O)/C(=C/c2cccn2-c2ccc(S(N)(=O)=O)cc2)S1` [CBK265681], the viability at 28.5 h, 10 µM was 107%.

For the molecule `CCOC(=O)c1c(NC(=O)CSc2nnc3ccccn23)sc2c1CCCCC2` [CBK265685], the viability at 28.5 h, 10 µM was found to be 101%.

With `Cc1nnc(SCCCCSc2nnc(C)n2N)n1N` [CBK265686], the viability at 28.5 h, 10 µM was 88.5%.

In the case of `Cc1cc2ccccc2n2c(SCC(=O)NCC3CCCO3)nnc12` (stereo not drawn) [CBK265688], the viability at 28.5 h, 10 µM was 103%.

For the molecule `COc1ccc(CNc2nccs2)c(O)c1` [CBK265690], the viability at 28.5 h, 10 µM stood at 86.2%.

For the molecule `O=S(=O)(NCc1ccccc1)c1cccc2nonc12` [CBK265692], the viability at 28.5 h, 10 µM amounted to 90.4%.

`CC(=O)c1ccc(NC(=O)C2C3C=CC(C3=C(c3ccccc3)c3ccccc3)C2C(=O)O)cc1` (stereo not drawn) [CBK265696]: the viability at 28.5 h, 10 µM came out at 98.4%.

As to `COc1cc(/C=C2\C(=O)N(c3ccccc3Cl)N=C2c2ccccc2)ccc1O` [CBK265698], the viability at 28.5 h, 10 µM is 82.8%.

With `CCN(CC)CC(O)Cn1c(-c2cccc([N+](=O)[O-])c2)nc(=S)c2c1CCCC2` (stereo not drawn) [CBK265700], the viability at 28.5 h, 10 µM was found to be 97.1%.

With `O=C(CSc1nc2ccccc2[nH]1)Nc1cccc(NC(=O)C23CC4CC(CC(C4)C2)C3)c1` [CBK265702], the viability at 28.5 h, 10 µM came out at 89.8%.

In the case of `O=C(COc1ccccc1C1CC(=O)Nc2ccc3ccccc3c21)Nc1ccccc1` (stereo not drawn) [CBK265704], the viability at 28.5 h, 10 µM was 97.3%.

Take `COc1cc(/C=C2\S/C(=N/c3ccc(S(N)(=O)=O)cc3)NC2=O)c(Br)cc1O` [CBK265711]: the viability at 28.5 h, 10 µM came to 96.9%.

Turning to `O=C(O)Cn1c2ccc(Cl)cc2c2nc3ccccc3nc21` [CBK265712], the viability at 28.5 h, 10 µM was determined as 97.8%.

Regarding `O=C(C1CCN(S(=O)(=O)c2ccccc2)CC1)N1CCN(Cc2ccc3c(c2)OCO3)CC1` [CBK265713], the viability at 28.5 h, 10 µM is 104%.

Turning to `Cc1nnc(SCc2cccc(Oc3ccccc3)c2)n1N` [CBK265714], the viability at 28.5 h, 10 µM turned out to be 104%.

For the molecule `CN(CC(=O)O)C(=O)c1ccc(S(=O)(=O)N2CCCCC2)cc1` [CBK265715], the viability at 28.5 h, 10 µM was 112%.

On to `O=S(=O)(NC1CCCC1)c1cccc(-c2nnc(-c3ccccc3)o2)c1` [CBK265716], for which the viability at 28.5 h, 10 µM was determined as 94.6%.

With `COc1cc(C(c2c[nH]c3ccccc23)c2c[nH]c3ccccc23)ccc1OCC(=O)O` [CBK265717], the viability at 28.5 h, 10 µM was determined as 97.8%.

Consider `O=C(OCc1ccc(Br)cc1)c1ccccc1S(=O)(=O)c1ccccc1[N+](=O)[O-]` [CBK265718], for which the viability at 28.5 h, 10 µM is 92.2%.

As for `O=C(O)COc1ccc(Br)cc1C(c1c[nH]c2ccccc12)c1c[nH]c2ccccc12` [CBK265720], the viability at 28.5 h, 10 µM was found to be 94.6%.

Consider `CN(C)S(=O)(=O)c1ccc(Cl)c(C(=O)Nc2cccc([N+](=O)[O-])c2)c1` [CBK265721], for which the viability at 28.5 h, 10 µM is 103%.

Take `O=C(O)COc1ccc(Br)cc1/C=C1\N=C(SCc2ccccc2)SC1=O` [CBK265725]: the viability at 28.5 h, 10 µM came to 110%.

As for `O=C(O)c1cccc(-c2ccc(/C=C3\SC(=S)N(Cc4ccco4)C3=O)o2)c1` [CBK265726], the viability at 28.5 h, 10 µM came out at 98.3%.

As to `CN(C)S(=O)(=O)c1ccc(Cl)c(C(=O)Nc2ccc(C(=O)O)cc2)c1` [CBK265728], the viability at 28.5 h, 10 µM is 94.7%.

On to `Cc1ccc(N2C(=O)c3ccc(C(=O)OCc4ccc([N+](=O)[O-])cc4)cc3C2=O)cc1Cl` [CBK265730], for which the viability at 28.5 h, 10 µM is 103%.

On to `CCN(CC)S(=O)(=O)c1cc(C(=O)Nc2ccccc2C(=O)O)c(Cl)cc1Cl` [CBK265731], for which the viability at 28.5 h, 10 µM was 125%.

With `CC(=O)c1cccc(NC(=O)c2cc(S(=O)(=O)N(C)C)ccc2Cl)c1` [CBK265732], the viability at 28.5 h, 10 µM was 111%.

Regarding `O=C(O)c1ccc(Cl)c(S(=O)(=O)N2CCCC2C(=O)O)c1` (stereo not drawn) [CBK265733], the viability at 28.5 h, 10 µM came out at 103%.

For the molecule `O=C(c1ccccc1Br)N1CCN(c2ccc([N+](=O)[O-])c(NCc3cccnc3)c2)CC1` [CBK265735], the viability at 28.5 h, 10 µM came out at 100%.

`O=C(O)CCSc1nnc2[nH]c3ccccc3n12` [CBK265736]: the viability at 28.5 h, 10 µM was 108%.

In the case of `CCn1nccc1C(=O)Nc1nc2ccccc2n1CCN1CCCCC1` [CBK265737], the viability at 28.5 h, 10 µM came out at 89.1%.

As for `Cc1ccc(C)c(C(=O)C2=C(O)C(=O)N(CCN(C)C)C2c2ccc(O)cc2)c1` (stereo not drawn) [CBK265740], the viability at 28.5 h, 10 µM is 102%.

For the molecule `O=C(NC(NC(=O)c1ccccc1F)c1ccc2c(c1)OCO2)c1ccccc1F` [CBK265742], the viability at 28.5 h, 10 µM came out at 106%.

Regarding `COc1ccc(N2CCN(CC(=O)Nc3ccc(Cl)cc3C(=O)c3ccccc3)CC2)cc1` [CBK265743], the viability at 28.5 h, 10 µM stood at 90.7%.

For `NC(=O)c1c(NC(=O)c2ccc(-c3ccccc3)cc2)sc2c1CCC2` [CBK265747], the viability at 28.5 h, 10 µM was 91.3%.

Regarding `O=C(Nc1ccc(Cl)cc1C(=O)NCCN1CCOCC1)c1ccc(Cl)cc1Cl` [CBK265749], the viability at 28.5 h, 10 µM is 105%.

For the molecule `O=C(c1ccc(COc2ccccc2Cl)o1)N1CCN(Cc2ccc3c(c2)OCO3)CC1` [CBK265750C], the viability at 28.5 h, 10 µM is 87.3%.

Consider `CCOC(=O)c1cnc2ccc(F)cc2c1NCCN(C)C` [CBK265751], for which the viability at 28.5 h, 10 µM was found to be 91.7%.

With `Sc1nncn1NCc1cc(Cl)ccc1OCc1ccccc1` [CBK265752], the viability at 28.5 h, 10 µM amounted to 88.9%.

On to `CCn1cc(C(=O)O)c(=O)c2cnc(N3CCN(C(=S)NC(=O)c4cccs4)CC3)nc21` [CBK265753], for which the viability at 28.5 h, 10 µM was 95.7%.

As to `COC(=O)c1ccc(NC(=O)c2ccccc2-c2ccccc2C(=O)O)cc1` [CBK265759], the viability at 28.5 h, 10 µM was 110%.

Take `CCC(Sc1nc(N)cc(=O)[nH]1)C(=O)Nc1ccc2ccccc2c1` (stereo not drawn) [CBK265761]: the viability at 28.5 h, 10 µM is 98.9%.

On to `O=C(CSc1nnc(-c2ccco2)c(-c2ccco2)n1)Nc1ccccc1[N+](=O)[O-]` [CBK265762], for which the viability at 28.5 h, 10 µM is 107%.

Turning to `CN1CCN(NC(=O)c2cccc(COc3ccccc3Cl)c2)CC1` [CBK265765], the viability at 28.5 h, 10 µM is 99.2%.

On to `O=C(Nc1ccc(Cc2ccc(O)c(NC(=O)c3ccccc3F)c2)cc1O)c1ccccc1F` [CBK265766], for which the viability at 28.5 h, 10 µM came to 85.4%.

Regarding `COc1cccc(C(=O)Nc2ccccc2C(=O)Nc2cccc(C(=O)O)c2C)c1` [CBK265768], the viability at 28.5 h, 10 µM was determined as 88.1%.

For `CN1CCN(C(=O)CN(Cc2ccc(Cl)cc2)S(=O)(=O)c2ccc(Br)cc2)CC1` [CBK265771], the viability at 28.5 h, 10 µM came out at 113%.

In the case of `CCn1c(=O)[nH]c2cc(C(=O)NCCc3ccccc3)ccc2c1=O` [CBK265773], the viability at 28.5 h, 10 µM amounted to 95.2%.

For `O=c1[nH]c2ccc(Cl)cc2c(-c2ccccc2)c1N1CCN(Cc2ccc3c(c2)OCO3)CC1` [CBK265776], the viability at 28.5 h, 10 µM came to 92.3%.

The data set is the same for the next values; noted with them: human, hela cells, % viability, bulk resorufin, single well.
In the case of `CCN1C(=O)/C(=C/Nc2ccc(S(N)(=O)=O)cc2)C(=O)NC1=S` [CBK265687], the viability at 28.5 h, 10 µM amounted to 112%.
